Source: ChEMBL document CHEMBL4145564, “NAD(P)H:Quinone Oxidoreductase 1 (NQO1) as a Therapeutic and Diagnostic Target in Cancer” (J Med Chem, 2018)
pIC50, pKi: −log10 of the molar value. Blank lines part the entries; values can stand above or below the molecule they belong to.

Legend:
[1] = molecular target: T1, NAD(P)H dehydrogenase [quinone] 1 (Homo sapiens, UniProt P15559); assay: Inactivation of recombinant human NQO1 expressed in Escherichia coli using DCPIP as substrate assessed as rate of reduction of DCPIP by spectrophotometric analysis
[2] = molecular target: T1, NAD(P)H dehydrogenase [quinone] 1; assay: Inhibition of recombinant human NQO1 expressed in Escherichia coli using DCPIP as substrate assessed as rate of reduction of DCPIP in presence of NADH after 5 mins by spectrophotometric analysis
[3] = molecular target: T1, NAD(P)H dehydrogenase [quinone] 1; assay: Inactivation of recombinant human NQO1 expressed in Escherichia coli using DCPIP as substrate assessed as partition ratio up to 200 nM by spectrophotometric analysis
[4] = molecular target: T1, NAD(P)H dehydrogenase [quinone] 1; assay: Inhibition of recombinant human NQO1 in presence of NADPH measured at 2 sec intervals for 5 mins
[5] = system: Homo sapiens; assay: Toxicity in iv dosed human assessed as maximum tolerated dose administered as infusion; format: organism-based; conditions: in vivo
[6] = Half life in athymic nude mouse blood; format: ADME, organism-based
[7] = molecular target: T2, NAD(P)H dehydrogenase [quinone] 1 (Rattus norvegicus, UniProt P05982); assay: Competitive binding affinity to rat liver NQO1 in presence of NADPH
T2 sequence (P05982 whole entry): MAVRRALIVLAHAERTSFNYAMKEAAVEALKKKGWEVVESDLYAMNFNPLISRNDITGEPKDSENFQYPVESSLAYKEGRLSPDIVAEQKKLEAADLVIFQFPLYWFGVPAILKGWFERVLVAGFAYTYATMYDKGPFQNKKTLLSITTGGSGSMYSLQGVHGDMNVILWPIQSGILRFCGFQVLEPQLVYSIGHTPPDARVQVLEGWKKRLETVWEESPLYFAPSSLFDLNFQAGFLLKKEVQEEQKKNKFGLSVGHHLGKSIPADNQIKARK

SMILES: COC1=CC(=O)c2c(c(COc3ccc([N+](=O)[O-])cc3)c(C)n2C)C1=O
Kinact [1]: 0.78 min⁻¹ | pKi [2]: 6.35 | Ratio [3]: 1.4

SMILES: CC1=C(N2CC2)C(=O)C(CO)=C(N2CC2)C1=O
MTD [5]: 1430 ug/m2/day

SMILES: CC1(C)CCC2=C(O1)c1ccccc1C(=O)C2=O [LAPACHONE]
half-life [6]: 24 min

SMILES: O=c1oc2ccccc2c(O)c1Cc1c(O)c2ccccc2oc1=O [DICUMAROL]
pKi [7]: 8.00 to 9.00

Continued, values first:

pIC50 [4]: 5.83
SMILES: S=C(Cc1ccc2c3c([nH]c2c1)CCCC3)N1CCOCC1

pIC50 [4]: 5.69
SMILES: CN1C(=O)C(O)(CC(=O)c2cc3c4c(cccc4c2)CC3)c2ccccc21 (stereo not drawn)
